The structures appear in SMILES notation. Peptide text beside a SMILES is read from it. * marks the point of attachment. Cbz = O=C(OCc1ccccc1)*

Experimental findings from patent US20120129189A1, “Methods of Controlling Cell Proliferation” (priority 2009, published 2012) are described below.

In test [1] the test system is active β-Catenin in ESCs. As to the kind of experiment: Western analysis of active β-Catenin in ESCs. The test is classed as cell-based.
Description: Gapdh antibody was used as a loading control. h, head; ht, heart tube; Con, control; N1 KD, Notch1 siRNA; N1-4 KD, Notch 1-4 siRNA.
In test [2] the test system is Notch/RBP-J activity in SW480 cells. Briefly: Notch/RBP-J-dependent luciferase activity in SW480 cells. The test is classed as cell-based, human. The settings on record: SW480, increasing doses of Ibuprofen. The method, then: (§1) For Notch, RBP-J or Numb/Numbl knockdown experiments, Notch1-4, RBPSUH or Numb/Numbl On-TARGETplus SMARTpool (Dharmacon L-041110, L-044202, L-047867, L-046498, L-007772 or L-046935/L-046983) or Block-iT Alexa Fluor Red (46-5, 318, Invitrogen) was used at concentrations of 50, 100, or 200 nM for cell transfection. Tethered and truncated forms of Notch1 constructs were kindly provided by Drs. R. Kopan (Washington University, St. Louis, Mo.) and M. Nakafuku (Cincinnati Children's Hospital, Cincinnati, Ohio), respectively. Cells were transfected with Lipofectamine LTX (Invitrogen) or Lipofectamine 2000 (Invitrogen) in single-cell suspensions. For gene expression analysis, qPCR was performed with the ABI Prism system (7900HT, Applied Biosystems) with the following primers: β-Catenin (Mm01350394_m1), Cyclin D1 (Mm00432359_m1), Gapdh (Mm99999915_g1). All samples were run at least in triplicate. Real-time quantitative PCR data were normalized and standardized with SDS2.2 software. […]
(§2) FIGS. 5A-I. γ-Secretase Inhibitors (GSIs) Suppress Expansion of Human Colon Cancer Cells by Blocking Notch Cleavage (A) Western analysis of active β-Catenin in SW480 colon cancer cells transfected with control or siRNA against Notch1-4 (100 nM each). […] Notch/RBP-J activity was measured by transfecting cells with a luciferase reporter downstream of multiple RBP-J sites. […]

The subject of test [3] is β-Catenin in SW480 cells. Briefly: Western analysis of β-Catenin in SW480 cells. The test is classed as cell-based, human. Here is the method:
(§3) Cells were scraped off the 100-mm dish and lysed in 1 ml of lysis buffer (1 mM PMSF, 1 mM EDTA, 10 mM Tris-HCl, 0.1% Triton X100, 1× Complete Protease Inhibitor Cocktail (Roche) in PBS). The lysates were spun down, and 1 μg of anti-c-Myc antibody (Sigma, M4439) or anti-Flag antibody (Sigma, F1804) was added to 500 μl of the supernatant. A 50-50 mixture of protein A Sepharose (Amersham) and protein G Sepharose (Amersham) was added to the lysate/antibody mixture for immunoprecipitation for 1 hour. The resulting outputs were washed with lysis buffer and subjected to western blot analysis. For western blotting, samples were analyzed using antibodies against active-β-Catenin (anti-ABC, Millipore), phospho-β-Catenin (Ser33/37/Thr41, Cell Signaling), β-Catenin (sc-1496, Santa Cruz Biotechnology) and Gapdh (Santa Cruz Biotechnology).
(§4) FIGS. 5A-I. γ-Secretase Inhibitors (GSIs) Suppress Expansion of Human Colon Cancer Cells by Blocking Notch Cleavage (A) Western analysis of active β-Catenin in SW480 colon cancer cells transfected with control or siRNA against Notch1-4 (100 nM each). (B) Relative β-Catenin/TCF activity of SW480 cells treated with increasing doses of DAPT for 96 h. (C) Western analysis of β-Catenin levels in SW480 and a second colon cancer cell line, HT-29, treated with increasing doses (0, 25, 50 or 100 μM) of DAPT for 96 h. (D) Relative number of SW480 cells treated with DAPT (50 or 100 μM) for 72 h. (E) Western analysis of active β-Catenin levels in SW480 cells with increasing DAPT in the presence or absence of proteasome inhibitor (PI) MG-132 (5 nM) for 72 h. […] (F) Notch/RBP-J activity of SW480 cells treated with increasing doses of Ibuprofen. Notch/RBP-J activity was measured by transfecting cells with a luciferase reporter downstream of multiple RBP-J sites. (G) Relative β-Catenin/TCF activity of SW480 cells treated with Ibuprofen for 72 h. (H) Western analysis of active β-Catenin in SW480 cells treated with Ibuprofen for 72 h. (I) Western analysis of active β-Catenin in SW480 cells transfected with Notch1-4 (100 nM each) siRNA and treated with or without ibuprofen. Gapdh antibody was used as a loading control. All luciferase values were normalized to Renilla activity and represent n=4. *, P<0.01. Con, control; N1-4 KD, Notch 1-4 siRNA.

In test [4] the test system is β-Catenin/TCF activity in SW480 cells. As to the kind of experiment: β-Catenin/TCF luciferase activity in SW480 cells. The test is classed as cell-based, human. The method, then:
as §1, §2

Test [5] has as its system hESCs, NSCs and bone marrow mesenchymal stem cells. Briefly: β-Catenin activity and protein in other stem cells. The test is classed as cell-based. The settings on record: increasing doses of DAPT, 72-96 h. The text has this:
(§5) FIGS. 3A-I. Membrane-Bound Notch Negatively Regulates Active β-Catenin Levels in Stem Cells (A) Schematic representation of wildtype Notch1 and cleavage site-mutated tethered forms of Notch1 (V1744K and V1774L). […] (C) BIO-treated ESCs transfected with WT or mutant Notch1 constructs and, immunoprecipitated (IP) with anti-Myc antibody and immunoblotted (IB) with β-Catenin antibody. Notch1 expression was detected with anti-Myc antibody. Arrowheads indicate cleaved Notch1. (D) Western analysis of active β-Catenin in ESCs transfected with WT or mutant Notch1 constructs. (E) Relative β-Catenin/TCF activity of ESCs and NSCs treated with increasing doses of DAPT for 72-96 h. (F) Western analysis of active β-Catenin in ESCs, NSCs, and bone marrow mesenchymal stem cells (MSCs) treated with increasing doses (0, 25, 50 or 100 μM) of DAPT for 72-96 h. (G) Relative number of ESCs after treatment with DAPT (50 or 100 μM) for 48 h. (H) Relative expression of Cyclin D1 mRNA in ESCs transfected with control (LacZ) or tethered Notch (V1774L) and cultured for 72 h. (I) Relative expression of Brachyury, Nestin and Sox17 mRNA in ESCs maintained without LIF for 72 h after transfection with control (LacZ) or tethered Notch (V1774L); *, P<0.01; NS, not significant. […] Con, control.

For test [6], the system named is β-Catenin/TCF activity in ESCs. As to the kind of experiment: β-Catenin/TCF-directed luciferase reporter (Topflash) in ESCs. The test is classed as cell-based. The settings on record: increasing doses of DAPT, 72-96 h. The method, then: as §1, with “For gene expression analysis, qPCR was performed with the ABI Prism system (7900HT, Applied Biosystems) with the following primers: β-Catenin (Mm01350394_m1), Cyclin D1 (Mm00432359_m1), Gapdh (Mm99999915_g1). All samples were run at least in triplicate.” left out
FIGS. 1A-F. Notch Negatively Regulates Active β-Catenin in Stem Cells Independently of RBP-J (A) Western analysis of ESCs transfected with control or Notch1 (N1) siRNA (50 or 100 nM) with active β-Catenin (Act β-Cat) antibody that detects N-terminal-dephosphorylated β-Catenin. (B and C) Relative β-Catenin/TCF-directed luciferase activity in ESCs (B) or neural stem cells (NSCs) (C) transfected with control siRNA or siRNA against Notch1 or Notch1-4. β-Catenin/TCF activity was measured by co-transfecting cells with a luciferase reporter downstream of multiple TCF binding sites (Topflash). […]

Test [7] deals with SW480 cells. As to the kind of experiment: Relative number of SW480 cells (cell expansion). The test is classed as cell-based, human. The settings on record: SW480 (FIG. 5D), DAPT 50 or 100 μM, 72 h; text names SW480 and HT-29. The method, then:
as §4, with “Con, control; N1-4 KD, Notch 1-4 siRNA.” left out

The subject of test [8] is ESCs. As to the kind of experiment: Relative number of ESCs after treatment. The test is classed as cell-based. Particulars: DAPT 50 or 100 μM, 48 h.
Description: as §5

Test [9] relates to β-Catenin in HT-29 cells. Briefly: Western analysis of β-Catenin in HT-29 cells. The test is classed as cell-based, human. Particulars: HT-29, DAPT 0, 25, 50 or 100 μM, 96 h. The method, then:
as §3
FIGS. 5A-I. γ-Secretase Inhibitors (GSIs) Suppress Expansion of Human Colon Cancer Cells by Blocking Notch Cleavage (A) Western analysis of active β-Catenin in SW480 colon cancer cells transfected with control or siRNA against Notch1-4 (100 nM each). (B) Relative β-Catenin/TCF activity of SW480 cells treated with increasing doses of DAPT for 96 h. […] Notch/RBP-J activity was measured by transfecting cells with a luciferase reporter downstream of multiple RBP-J sites. […]

Turning to `O=C1Nc2cc(Br)ccc2/C1=C1/Nc2ccccc2/C1=N\O` [BIO, 6-bromoindirubin-3′-oxime], the “active β-Catenin levels” value in [1] (BIO 2 μM) is recorded as “greatly increases”.
Consider `CC(C)Cc1ccc(C(C)C(=O)O)cc1` (centres unmarked) [Ibuprofen], for which, in test [2], the “canonical Notch transcriptional activity (Notch/RBP-J-dependent luciferase activity)” value was “dose-dependent decrease”. Besides, in test [3] (SW480, Ibuprofen, 72 h), the “active β-Catenin protein” value is “lowered”. For the same molecule, the “reduction of β-Catenin protein levels after knockdown of Notch1-4” value in [3] (SW480 transfected with Notch1-4 siRNA (100 nM each), with or without ibuprofen) was “not observed”. The “active β-Catenin transcriptional activity” value in test [4] (SW480, Ibuprofen, 72 h) is “lowered”.
Turning to `CC(C)C[C@@H](C=O)NC(=O)[C@H](CC(C)C)NC(=O)[C@H](CC(C)C)NC(=O)OCc1ccccc1` [MG-132] (Cbz-Leu-Leu-Leu-aldehyde), in test [3] (SW480, proteasome inhibitor MG-132 (5 nM), 72 h), the “active β-Catenin levels” value is “higher levels of β-Catenin”.
On to `C[C@H](NC(=O)Cc1cc(F)cc(F)c1)C(=O)N[C@H](C(=O)OC(C)(C)C)c1ccccc1` [DAPT, N—[N-(3,5-difluorophenacetyl)-L-alanyl]-S-phenylglycine t-butyl ester], for which the “active β-Catenin activity and protein levels” value in test [5] was “trend was also observed”. The “active β-Catenin activity (relative β-Catenin/TCF activity)” value in [6] is given as “significant reduction”. Also, the “cell expansion (relative cell number)” value in [7] is “dose-dependent decrease”. For the same molecule, the cell numbers entry in test [8] is recorded as “significant decrease”. For the same molecule, in test [1] (DAPT 0, 25, 50 or 100 μM, 72-96 h), the “active β-Catenin protein levels” value is “significant reduction”. The β-Catenin protein entry is given as “dose-dependent decrease” in test [3] (SW480, DAPT 0, 25, 50 or 100 μM, 96 h) and “dose-dependent decrease” in [9]. The TCF/β-Catenin-dependent transcriptional activity entry in test [4] (SW480 (FIG. 5B), increasing doses of DAPT, 96 h, text names SW480 and HT-29) is “dose-dependent decrease”.
